Measurements published in US11273124B2, “Antifungal nanoparticles for targeted treatment of fungal infections” (priority 2019, dated 2022).
Converted amounts (≈) assume the structure as drawn. “Also recorded” adds a separate entry of the source. Numbered stars: 1 amine (or outer) side, 2 acyl side, 3 side chain; on linkers, the order of the positions; unused ones are H or OH. Bridge positions count the residues as written; N and C are the ends. Square brackets hold non-standard residues; d marks the D form. Peptide text beside a SMILES is read from it. * marks the point of attachment. pTerphenylCO(4''-OnC5H11) = CCCCCOc1ccc(-c2ccc(-c3ccc(C(=O)*)cc3)cc2)cc1; Orn(4R-OH,5R-OH) = O=C([C@H](C[C@@H](O)[C@@H](O)N[*:3])N[*:1])[*:2]; hTyr(3S-OH,4S-OH) = N[C@H](C(=O)O)[C@H](O)[C@@H](O)c1ccc(O)cc1; Pro(3S-OH,4S-Me) = C[C@H]1CN[C@H](C(=O)O)[C@H]1O; Hyp = O=C(O)[C@@H]1C[C@@H](O)CN1

Experiments:
[1] = cited from earlier work
[2] = system: human cells; settings: compared to many other antifungals; cited from earlier work
[3] = system: Candida albicans 10231 biofilms; assay: Pre-formed biofilm treatment assay (microscopy, CFU, metabolic activity); assay type: cell-based; settings: liposomes at 1.25 mg/mL or equivalent free drug; twenty-four hours
Source text: (a) A set of representative differential interference contrast microscopy images of Candida albicans 10231 biofilms after twenty-four hours of treatment with 1×, 5×, and 10× anidulafungin loaded liposomes or equivalent free drug. (b) A bar graph showing Candida albicans 10231 biofilm colony-forming units (CFU) twenty-four hours after treatment with 1×, 5×, and 10× anidulafungin loaded liposomes or equivalent free drug (**p<0.01, unpaired two-tailed t-test, n=4). (c) A bar graph showing relative metabolic activity of Candida albicans 10231 biofilm cells twenty-four hours after treatment with 1×, 5×, and 10× anidulafungin loaded liposomes or equivalent free drug (*p<0.05, **p<0.01, ***p<0.001, ****p<0.0001, one-way ANOVA with Tukey's post hoc analysis, n=4). […] of untreated cells are shown. Negative controls lacking fungi were included in each study.
The inventors compared anidulafungin-loaded liposomes with AmBisome®, a commercially-available liposomal amphotericin B, for activity against Candida albicans 10231 biofilms. AmBisome® localizes to the fungal cell wall. See, Adler-Moore & Proffitt, Journal of Antimicrobial Chemotherapy, 49(1), 21-30 (2002) and Walker et al., mBio, 9(1), e02383-17 (2018). The anidulafungin-loaded liposomes performed as AmBisome®, reducing fungal burden by five-fold after only twenty-four hours. See, FIG. 4. […]

[4] = system: Candida albicans; settings: cited from earlier work
[5] = system: Candida parapsilosis; settings: cited from earlier work

For CCCCCOc1ccc(-c2ccc(-c3ccc(C(=O)N[C@H]4C[C@@H](O)[C@@H](O)NC(=O)[C@@H]5[C@@H](O)[C@@H](C)CN5C(=O)[C@H]([C@@H](C)O)NC(=O)[C@H]([C@H](O)[C@@H](O)c5ccc(O)cc5)NC(=O)[C@@H]5C[C@@H](O)CN5C(=O)[C@H]([C@@H](C)O)NC4=O)cc3)cc2)cc1 [Anidulafungin, 1-[(4R,5R) 4,5-dihydroxy-N2-[[4″-(pentyloxy)[1,1′:4′,1″-terphenyl]-4-yl]carbonyl]-L-ornithine] echinocandin B] ({pTerphenylCO(4''-OnC5H11)}-[Orn(4R-OH,5R-OH)]T[Hyp][hTyr(3S-OH,4S-OH)]T[Pro(3S-OH,4S-Me)]; lactam 1-C), the solubility in ethanol ([1]; ethanol) is given as “slightly soluble”, the solubility in water ([1]; water) is given as “practically insoluble; also recorded: not freely soluble” and the “toxicity to human cells” value [2] is given as “reduced toxicity to human cells”. The “metabolic activity compared to untreated controls” value [3] was “did not reduce metabolic activity”, the “minimum inhibitory concentration (MIC)” value [4] was 0.25 µg/mL (≈ 0.219 µM) and the “minimum inhibitory concentration (MIC)” value [5] was 4 µg/mL (≈ 3.51 µM).
